# Source: EP0262785A1, “N-[2-(4-carboxymethoxyphenyl)-1-methylethyl]-2-hydroxy-2-(3-chlorophenyl)ethane amine, the methyl ester, salt and stereoisomeric forms thereof” (BEECHAM GROUP PLC, priority 1986, dated 1988)
# Columns and labels:
# Female CFLP mice = experiment: Anti-hyperglycaemic activity (subcutaneous glucose load, blood glucose curve); type: in vivo; conditions: Dose 0.02 µmol/kg orally as aqueous solution, 6 mice fasted for 24 hours; glucose 1g/kg subcutaneously 30 minutes later; area over the 2 hour period compared with control mice given water
# Method: Female CFLP mice, weighing approximately 25 g, were fasted for 24 hours prior to the study. The compound under study was administered orally as an aqueous solution to each of 6 mice. 30 minutes later a blood sample (10µl) was obtained from the tail for the analysis of blood glucose. Immediately after taking this blood sample, glucose (1g/kg body weight) was administered subcutaneously to each mouse. 6 mice were given water as a control. Blood samples were then obtained from each mouse at 30 minute intervals for 120 minutes. Compounds that produce a significant (P<0.05) reduction of blood glucose, compared with control mice given water, at any time interval, are considered active. The area under the blood glucose curve over the 2 hour period after the administration of the glucose was calculated for the compound and compared with the value for control animals.
# Male Sprague-Dawley rats = experiment: Effect on Energy Expenditure of Rats; type: in vivo; conditions: Dose 0.2 µmol/kg p.o. in water, rats deprived of food, percentage of the rate of energy expenditure of the rats dosed with water
# Method: Water was provided ad lib at all times. The compounds were administered orally in water to 3 or 4 rats. A further 4 rats were dosed orally with water. The rats were placed in boxes through which air was drawn and the oxygen content of the air leaving the boxes was measured. The energy expenditure of the rats was calculated for 3 hours and for 21 hours after dosing from the volume of air leaving the boxes and its oxygen content, following the principles described by J.B. de V. Weir, J. Physiol. (London) 109, 1-9 (1949). The results are expressed as a percentage of the rate of energy expenditure of the rats dosed with water.
smiles,measurement,setting,value
"COC(=O)COc1ccc(C[C@@H](C)NC[C@H](O)c2cccc(Cl)c2)cc1 [Example 1, N-[2-(4-Carbomethoxymethoxyphenyl)-1-(R)-1-methylethyl-2-(R)-2-hydroxy-2-(3-chlorophenyl)ethananine, hemifumarate]",% Reduction in area under Blood Glucose Curve,Female CFLP mice,51%
same,Mean Energy Expenditure (0-3h),Male Sprague-Dawley rats; 3 hours after dosing,134 percentage
same,Mean Energy Expenditure (0-21h),Male Sprague-Dawley rats; 21 hours after dosing,111 percentage
